# Measured values: PubChem BioAssay AID720570 (Broad Institute, 2013)
# Calls of active or inactive are those of the source.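 Rule for the calls: active = cell-killing curve crosses a set limit at a concentration no more than twice the top valid dose; inconclusive = flat curve with a 30 to 70% loss, or a poor fit; inactive = signal rising instead of falling, and the rest.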
# Test system: TC71 Ewing sarcoma viability, CellTiter-Glo ATP, 72 h
# Experiment: cytotoxicity in EWS/Fli1-dependent TC71 cells – cell-based, luminescence, cherry-picked samples, retest, confirmation (AID 720570)
row,SMILES,AC35
1,O=C(N/N=C/c1cnc(N2CCCCC2)s1)c1ccc(C(F)(F)F)cc1,20.9 µM
2,N=c1ccn2c(n1)O[C@H]1[C@H](O)[C@@H](CO)O[C@H]12,3 µM
3,CN(C)c1ccc(C=c2c3ccccc3n3c2c2c([n+]3C)CCCC2)cc1,3.96 µM
4,CN(C)c1ccc(N=Nc2nc3ccccc3n2C)cc1,13.6 µM
5,COC1C(O)C(C)OC(OC2C(Oc3cccc4c(O)c5c(=O)oc6ccc(C)c7c(=O)oc(c34)c5c67)OC(C)C(O)C2O)C1O (stereo not given),5.5 µM
6,C[C@H]1CN([C@@H](C)CO)C(=O)c2cc(N(C)C)ccc2O[C@@H]1CN(C)Cc1ccc(C(=O)Nc2ccccc2N)cc1,17.7 µM
7,COC(=O)C[C@H]1CC[C@@H]2[C@H](COc3ccc(NC(=O)Nc4cccc(Cl)c4)cc3C(=O)N2C)O1,15 µM
8,Cc1ccccc1S(=O)(=O)N1CC[C@@H]2[C@@H](CO)Nc3ccc(-c4ccc(C#N)cc4)cc3[C@@H]21,4.8 µM
9,COc1ccc(Cn2cc3c(-c4ccc(F)cc4)nnc-3c3cc(OC)c(OC)cc32)cc1,13.4 µM
10,C#CCOCCOCCOCCNc1nc(N2CCN(C(=O)CCCCCCCCCCNC(=O)Cn3cc(C[C@@H](C)O)nn3)CC2)nc(N2CCN(C(=O)CCCCCCCCCCNC(=O)[C@H](CO)n3cc(CCCSC)nn3)CC2)n1,21.5 µM
11,N#C[C@@H]1[C@H](c2ccc(C#Cc3ccc(F)cc3)cc2)[C@@H](CO)N1C(=O)Nc1ccc(F)cc1,10.9 µM
12,Cc1ccc(S(=O)(=O)Nc2ccc3c(c2)C(=O)N([C@H](C)CO)C[C@H](C)[C@@H](CN(C)Cc2ccc(C(F)(F)F)cc2)OCCCC[C@H](C)O3)cc1,12.1 µM
13,Cc1nc(N)nc(N)c1CCCc1ccc(Cl)c(Cl)c1,1.81 µM
14,CN1C(=O)c2cc(NC(=O)c3ccc(Cl)cc3)ccc2OC[C@@H]2O[C@@H](CC(=O)NCc3cccc(F)c3)CC[C@H]21,5.21 µM
15,CCCCCCCCn1c2c(c(=N)c3c1CCC3)CCCC2,4.88 µM
16,COc1cc2c(OC(C)=O)c3c(c(-c4ccc5c(c4)OCO5)c2cc1OC)C(=O)OC3,3.57 µM
17,C[C@@H]1CN([C@@H](C)CO)C(=O)c2cccc(NC(=O)Nc3cccc4ccccc34)c2O[C@@H]1CN(C)Cc1ccc(C(=O)Nc2ccccc2N)cc1,10.8 µM
18,CCC1=Nc2cc(C(=O)NCC3CCCO3)ccc2Sc2ccc(Br)cc21 (stereo not given),6.83 µM
19,COc1ccc(/C=C/C(=O)c2cc(F)ccc2OC(=O)c2ccccc2OC)cc1OC,1.59 µM
20,Cc1nc2ncccn2c1-c1csc(Nc2ccc(O)cc2)n1,4.74 µM
21,O=C(NCc1ccc(F)cc1)N1[C@H]2CC[C@@H]1C=C(c1ccc(F)cc1OCc1ccccc1)C2,13.9 µM
22,Cc1cc(C)cc(C(=O)NC(=S)Nc2ccc(Cc3ccncc3)cc2)c1,7.66 µM

row,SMILES,AC35
1,COc1ccccc1NC(=O)N1[C@@H]2CNC[C@H]1[C@@H]2c1ccc(-c2ccc(C#N)cc2)cc1,> 23.5 µM (inactive)
2,C[C@@H]1CN([C@H](C)CO)S(=O)(=O)c2ccc(C#CC(C)(C)O)cc2O[C@H]1CN(C)Cc1ccc(-c2ccccc2)cc1,3.05 µM
3,CCc1nc(N)nc(N)c1-c1ccc(Cl)c(N=[N+]=[N-])c1,3.56 µM
4,CN(C)c1ncnc2c1ccn2C1OC(CO)C(O)C1O (stereo not given),7.06 µM
5,Cc1c(Cl)cccc1NC(=O)CCC(=O)N/N=C/c1ccc[nH]1,4.44 µM
6,Nc1ncn([C@@H]2O[C@H](CO)[C@@H](O)[C@H]2O)c(=O)n1,11.7 µM
7,CO[C@H]1CN(C)C(=O)c2cc(NC(=O)NC(C)C)ccc2OC[C@H](C)N(Cc2ccc(-c3ccccn3)cc2)C[C@@H]1C,20.8 µM
8,O=C(/C=C/c1cc(Br)ccc1O)c1ccco1,16.7 µM
9,COc1ccc(S(=O)(=O)N2CC[C@@H]3[C@H](CO)Nc4ccc(-c5ccc(C#N)cc5)cc4[C@@H]32)cc1,4.88 µM
10,C(=Cc1cnc2ccccc2n1)c1ccc2c(c1)OCO2,15.2 µM
11,COc1ccccc1NC(=O)N1CCCCN2[C@H](CO)[C@H](c3ccc(-c4cccc(C)c4)cc3)[C@H]2C1,10.9 µM
12,Cn1ccc2cc(-c3ccc4ncnc(NCc5cccs5)c4c3)ccc21,5.67 µM
13,C[C@]12CC[C@H](O)C[C@H]1CC[C@@H]1[C@@H]2CC[C@]2(C)[C@@H](C3=CC(=O)OC3)CC[C@]12O,2.11 µM
14,COc1cccc(Sc2ccccc2/C=N/NC(N)=O)c1,3.12 µM
15,CC(C)(C)c1ccc(Oc2ccc(N)cn2)cc1,4.73 µM
16,C[C@@H]1O[C@@H](O[C@@H]2C=C3CCC4C(CC[C@]5(C)[C@@H](c6ccc(=O)oc6)CC[C@]45O)[C@@]3(C)CC2)[C@H](O)[C@H](O)[C@H]1O (stereo not given in full),0.0271 µM
17,Nc1nc(=S)c2[nH]cnc2[nH]1,1.54 µM
18,Cc1cccc(NC(=O)CN2CCN(C(=O)CNC(=O)c3ccc(-c4ccccc4)cc3)CC2)c1C,8.9 µM
19,C[C@H](CO)N1C[C@H](C)[C@H](CN(C)Cc2ccc(C(=O)Nc3ccccc3N)cc2)Oc2ccc(N(C)C)cc2CC1=O,6.82 µM
20,C[C@@H]1CN([C@H](C)CO)C(=O)c2cc(N(C)C)ccc2O[C@H]1CN(C)Cc1ccc(C(=O)Nc2ccccc2N)cc1,12.5 µM
21,Cc1ccc(S(=O)(=O)Nc2ccc3c(c2)C(=O)N([C@@H](C)CO)C[C@@H](C)[C@@H](CN(C)Cc2ccc(C(=O)Nc4ccccc4N)cc2)O3)cc1,11.5 µM
22,CN=c1scc(-c2cccs2)n1/N=C/c1ccccc1O,21.7 µM

row,SMILES,AC35
1,C[C@H](CO)N1C[C@H](C)[C@H](CN(C)Cc2ccc(C(F)(F)F)cc2)Oc2ccc(NC(=O)CCCCCC(=O)Nc3ccccc3N)cc2CC1=O,11.5 µM
2,Cc1ccc(S(=O)(=O)Nc2ccc3c(c2)C(=O)N([C@H](C)CO)C[C@@H](C)[C@@H](CN(C)Cc2ccc(C(=O)Nc4ccccc4N)cc2)O3)cc1,11 µM
3,C/C(=C\c1ccccc1)C(=O)N1CCC=CC1=O,13.7 µM
4,CCOc1ccc(N=Nc2ccc(O)c3ncccc23)cc1,2.8 µM
5,Cc1cc(-c2nc3cc(F)ccc3s2)ccc1N,14.2 µM
6,COC(=O)CC1(C(=O)OC)Oc2ccc(Br)cc2C(=O)N1c1cccc(Cl)c1Cl (stereo not given),24.9 µM
7,COc1ccc(C(CCNCc2ccc(OC(C)C)cc2)C(C)C)cc1 (stereo not given),21.8 µM
8,C[C@H](CO)N1C[C@H](C)[C@H](CN(C)Cc2ccc(Oc3ccccc3)cc2)Oc2ccc(NC(=O)CCCCCC(=O)Nc3ccccc3N)cc2CC1=O,11.5 µM
9,CCc1ccc(Cn2ncc3c(C(=O)O)cc(C)nc32)cc1,20.8 µM
10,CC1OC(OC2CC(O)C3(CO)C4C(O)CC5(C)C(C6=CC(=O)OC6)CCC5(O)C4CCC3(O)C2)C(O)C(O)C1O (stereo not given),0.173 µM
11,CC1(C)N=C(N)N=C(N)N1c1ccc(OCCCOc2ccccc2)c(Cl)c1,4.91 µM
12,COc1ccc(S(=O)(=O)N2CC[C@@H]3[C@@H](CO)Nc4ccc(-c5ccc(C#N)cc5)cc4[C@@H]32)cc1,2.52 µM
13,CC(C)Oc1ccc(Br)cc1C(=O)N/N=C/c1c[nH]c2ccccc12,20.1 µM
14,CC12CCC(O)CC1CCC1C2CCC2(C)C(C3=CC(=O)OC3)CCC12O (stereo not given),1.17 µM
15,CC(=O)Nc1cccc(-c2ccnc3c2CC(C)(C(=O)NCc2ccc(N(C)C)cc2)O3)c1 (stereo not given),7.01 µM
16,O=C1NC2C(=CC(O)C(O)C2O)c2cc3c(cc21)OCO3 (stereo not given),3.67 µM
17,CCc1ccc2oc(C(=O)N3CCN(c4ccccc4OC)CC3)cc(=O)c2c1,12.6 µM
18,C[C@H]1CN([C@@H](C)CO)C(=O)c2cc(NS(=O)(=O)c3ccc(Cl)cc3)ccc2O[C@H]1CN(C)Cc1ccc(Cl)c(Cl)c1,20.3 µM
19,COc1ccc(OC)c(-c2nnc3n2N=C(c2ccc(OC)c(OC4CCOC4)c2)CS3)c1 (stereo not given),3.98 µM
20,COc1ccc(C2c3cc4c(cc3OC(NNC(N)=O)C2C)OCO4)cc1 (stereo not given),12 µM
21,COc1ccc(CN(C)c2ncnc3sccc23)c(OC)c1OC,16.2 µM
